pIC50: −log10 of the molar value.
Columns and labels:
[1] = system: Staphylococcus aureus; test: Antibacterial activity against Staphylococcus aureus ATCC 25923 assessed as inhibition of bacterial growth; assay type: functional, organism-based
[2] = system: NCI-H460; test: Cytotoxicity against human NCI-H460 cells assessed as inhibition of cell growth; assay type: functional, cell-based
[3] = system: Candida albicans; test: Antifungal activity against Candida albicans ATCC 10231 assessed as inhibition of bacterial growth; assay type: functional, organism-based
[4] = system: Bacillus subtilis; test: Antibacterial activity against Bacillus subtilis ATCC 6633 assessed as inhibition of bacterial growth; assay type: functional, organism-based
[5] = system: Escherichia coli; test: Antibacterial activity against Escherichia coli ATCC 11775 assessed as inhibition of bacterial growth; assay type: functional, organism-based
[6] = system: SW-620; test: Cytotoxicity against human SW620 cells assessed as inhibition of cell growth; assay type: functional, cell-based

Measured: pIC50

C[C@@H]1O[C@@H](Oc2cccc3nc4c(C(=O)O)cc5c(c4nc23)[C@@H]2Cc3nc4cccc(O)c4nc3[C@@](O)(C2)O5)[C@H](O)[C@H](O)[C@H]1O
< 4.52: all assays above

O=C(O)c1cc2c(c3nc4c(O)cccc4nc13)[C@@H]1Cc3nc4cccc(O)c4nc3[C@@](O)(C1)O2
< 4.52: all assays above

C[C@@H]1O[C@@H](Oc2cccc3nc4c(C(=O)O)cc5c(c4nc23)[C@H]2Cc3nc4cccc(O)c4nc3[C@@H](O5)[C@H]2O)[C@H](O)[C@H](O)[C@H]1O
< 4.52: all assays above

O=C(O)c1cc2c(c3nc4c(O)cccc4nc13)[C@H]1Cc3nc4cccc(O)c4nc3[C@@H](O2)[C@H]1O
< 4.52: all assays above

C[C@H]1O[C@H](Oc2cccc3nc4ccccc4nc23)[C@@H](O)[C@@H](O)[C@@H]1O
< 4.52: all assays above

C[C@@H]1O[C@@H](Oc2cc(C(=O)O)c3nc4cccc(O)c4nc3c2)[C@H](O)[C@H](O)[C@H]1O
< 4.52: all assays above

C[C@H]1O[C@H](Oc2cccc3nc4c(N(C)c5ccc(C(=O)O)cc5)cccc4nc23)[C@@H](O)[C@@H](O)[C@@H]1O
< 4.52: all assays above

CN(c1ccc(C(=O)O)cc1)c1cccc2nc3c(O)cccc3nc12 [IZUMIPHENAZINE C]
< 4.52: all assays above
